Values of other authors, collected in US20250248977A1, “Tablet Formulation Of Tafamidis Or Pharmaceutically Acceptable Salt Thereof” (Navinta LLC, priority 2024, published 2025).

aqueous solubility: low
SMILES: O=C(O)c1ccc2nc(-c3cc(Cl)cc(Cl)c3)oc2c1 [Tafamidis, 2-(3,5-dichlorophenyl)-1,3-benzoxazole-6-carboxylic acid]
